# Data reported in ChEMBL document CHEMBL1909294, “Translating clinical findings into knowledge in drug safety evaluation--drug induced liver injury prediction system (DILIps)” (PLoS Comput Biol, 2011).
# Experiments:
# Hepatotoxicity [1] = test system: Hepatotoxicity;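 on HepSE Combined Scores: combined hepatic side effect score as listed in the training data of the Drug Induced Liver Injury Prediction System (DILIps)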;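 on HepSE cholecystitis: Cholecystitis-related hepatic side effect score drawn from the DILIps (drug-induced liver injury prediction) training data set; call rule not given here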;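 on HepSE elevated liver function tests: hepatic side effect score for raised liver function tests, as recorded in the DILIps training set used for predicting drug-induced liver injury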;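 on HepSE hepatitis: Hepatitis-related hepatic side effect score taken from the training data of DILIps, a prediction system for drug-induced liver injury; call rule not given here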;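 on HepSE hepatomegaly: hepatic side effect score for hepatomegaly, taken from the training set of the DILIps drug-induced liver injury prediction system; call rule not given here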;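 on HepSE jaundice: Jaundice-related hepatic side-effect score drawn from the training data of the DILIps (drug-induced liver injury prediction system); call rule not given here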; on HepSE liver disease: call rule not given here
# Hepatotoxicity [2] = test system: Hepatotoxicity; remark: listed apart in the source;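 on HepSE Combined Scores: combined hepatic side effect score as listed in the training data of the Drug Induced Liver Injury Prediction System (DILIps)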;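 on HepSE cholecystitis: Cholecystitis-related hepatic side effect score drawn from the DILIps (drug-induced liver injury prediction) training data set; call rule not given here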;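 on HepSE elevated liver function tests: hepatic side effect score for raised liver function tests, as recorded in the DILIps training set used for predicting drug-induced liver injury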;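 on HepSE hepatitis: Hepatitis-related hepatic side effect score taken from the training data of DILIps, a prediction system for drug-induced liver injury; call rule not given here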;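 on HepSE hepatomegaly: hepatic side effect score for hepatomegaly, taken from the training set of the DILIps drug-induced liver injury prediction system; call rule not given here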;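 on HepSE jaundice: Jaundice-related hepatic side-effect score drawn from the training data of the DILIps (drug-induced liver injury prediction system); call rule not given here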; on HepSE liver disease: call rule not given here
# Hepatotoxicity [3] = test system: Hepatotoxicity; remark: listed apart in the source;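 on HepSE Combined Scores: combined hepatic side effect score as listed in the training data of the Drug Induced Liver Injury Prediction System (DILIps)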;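 on HepSE cholecystitis: Cholecystitis-related hepatic side effect score drawn from the DILIps (drug-induced liver injury prediction) training data set; call rule not given here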;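 on HepSE elevated liver function tests: hepatic side effect score for raised liver function tests, as recorded in the DILIps training set used for predicting drug-induced liver injury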;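 on HepSE hepatitis: Hepatitis-related hepatic side effect score taken from the training data of DILIps, a prediction system for drug-induced liver injury; call rule not given here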;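 on HepSE jaundice: Jaundice-related hepatic side-effect score drawn from the training data of the DILIps (drug-induced liver injury prediction system); call rule not given here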; on HepSE liver disease: call rule not given here
# Hepatotoxicity [4] = test system: Hepatotoxicity; remark: listed apart in the source;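 on HepSE Combined Scores: combined hepatic side effect score as listed in the training data of the Drug Induced Liver Injury Prediction System (DILIps)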;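 on HepSE cholecystitis: Cholecystitis-related hepatic side effect score drawn from the DILIps (drug-induced liver injury prediction) training data set; call rule not given here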;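 on HepSE elevated liver function tests: hepatic side effect score for raised liver function tests, as recorded in the DILIps training set used for predicting drug-induced liver injury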;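 on HepSE hepatitis: Hepatitis-related hepatic side effect score taken from the training data of DILIps, a prediction system for drug-induced liver injury; call rule not given here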;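 on HepSE jaundice: Jaundice-related hepatic side-effect score drawn from the training data of the DILIps (drug-induced liver injury prediction system); call rule not given here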; on HepSE liver disease: call rule not given here
# Hepatotoxicity [5] = test system: Hepatotoxicity; remark: listed apart in the source; on HepSE liver disease: call rule not given here
# Hepatotoxicity [6] = test system: Hepatotoxicity; remark: listed apart in the source; on HepSE liver disease: call rule not given here
# Hepatotoxicity [7] = test system: Hepatotoxicity; remark: listed apart in the source
# Hepatotoxicity [8] = test system: Hepatotoxicity; remark: listed apart in the source
# Hepatotoxicity [9] = test system: Hepatotoxicity; remark: listed apart in the source
# Hepatotoxicity [10] = test system: Hepatotoxicity; remark: listed apart in the source
# Hepatotoxicity [11] = test system: Hepatotoxicity; remark: listed apart in the source
# Hepatotoxicity [12] = test system: Hepatotoxicity; remark: listed apart in the source
# Hepatotoxicity [13] = test system: Hepatotoxicity; remark: listed apart in the source
# Hepatotoxicity [14] = test system: Hepatotoxicity; remark: listed apart in the source
Compound,HepSE_hepatitis (Hepatotoxicity [1]),HepSE_cholecystitis (Hepatotoxicity [2]),HepSE_liver disease (Hepatotoxicity [3]),HepSE_bilirubinemia (Hepatotoxicity [4]),HepSE_Combined Scores (Hepatotoxicity [5]),HepSE_elevated liver function tests (Hepatotoxicity [6]),HepSE_jaundice (Hepatotoxicity [7]),HepSE_hepatomegaly (Hepatotoxicity [8]),HepSE_cirrhosis (Hepatotoxicity [9]),HepSE_hepatic necrosis (Hepatotoxicity [10]),HepSE_hepatic failure (Hepatotoxicity [11]),HepSE_cholelithiasis (Hepatotoxicity [12]),HepSE_liver function tests abnormal (Hepatotoxicity [13]),HepSE_liver fatty (Hepatotoxicity [14])
C[C@H](/C=C/[C@H](C)C(C)(C)O)[C@H]1CC[C@H]2/C(=C/C=C3C[C@@H](O)C[C@H](O)C3)CCC[C@]12C [PARICALCITOL],0,0,0,0,0,0,0,0,0,0,0,0,0,0
NC[C@@H]1O[C@H](O[C@H]2[C@@H](O)[C@H](O[C@@H]3[C@@H](O)[C@H](N)C[C@H](N)[C@H]3O[C@H]3O[C@H](CO)[C@@H](O)[C@H](O)[C@H]3N)O[C@@H]2CO)[C@H](N)[C@@H](O)[C@@H]1O [PAROMOMYCIN],0,0,0,0,0,0,0,0,0,0,0,0,0,0
Fc1ccc([C@@H]2CCNC[C@H]2COc2ccc3c(c2)OCO3)cc1 [PAROXETINE],1,0,0,1,8,1,1,0,0,1,1,1,1,0
Nc1nc2[nH]cc(CCc3ccc(C(=O)N[C@@H](CCC(=O)O)C(=O)O)cc3)c2c(=O)[nH]1 [PEMETREXED],0,0,0,0,0,0,0,0,0,0,0,0,0,0
NC1=NC(=O)C(c2ccccc2)O1 (stereo not drawn) [PEMOLINE],1,0,0,0,2,0,1,0,0,0,0,0,0,0
CC(C)(C)NC[C@H](O)COc1ccccc1C1CCCC1 [PENBUTOLOL],0,0,0,0,0,0,0,0,0,0,0,0,0,0
Nc1nc2c(ncn2CCC(CO)CO)c(=O)[nH]1 [PENCICLOVIR],0,0,0,0,0,0,0,0,0,0,0,0,0,0
CC(C)(S)[C@@H](N)C(=O)O [PENICILLAMINE],0,0,0,0,1,0,0,0,0,0,1,0,0,0
CC1(C)S[C@@H]2[C@H](NC(=O)Cc3ccccc3)C(=O)N2[C@H]1C(=O)O [PENICILLIN G],0,0,0,0,0,0,0,0,0,0,0,0,0,0
CC1(C)S[C@@H]2[C@H](NC(=O)COc3ccccc3)C(=O)N2[C@H]1C(=O)O [PENICILLIN V],0,0,0,0,0,0,0,0,0,0,0,0,0,0
CCCC(C)C1(CC)C(=O)NC(=O)NC1=O (stereo not drawn) [PENTOBARBITAL],0,0,0,0,0,0,0,0,0,0,0,0,0,0
OC[C@H]1O[C@@H](n2cnc3c2NC=NC[C@H]3O)C[C@@H]1O [PENTOSTATIN],0,0,1,0,3,1,0,0,0,0,0,0,1,0
CC(=O)CCCCn1c(=O)c2c(ncn2C)n(C)c1=O [PENTOXIFYLLINE],1,1,0,0,3,0,1,0,0,0,0,0,0,0
CCCN1C[C@H](CSC)C[C@@H]2c3cccc4[nH]cc(c34)C[C@H]21 [PERGOLIDE],1,1,0,0,6,0,1,1,0,0,0,1,1,0
CCC[C@H](N[C@@H](C)C(=O)N1[C@H](C(=O)O)C[C@@H]2CCCC[C@@H]21)C(=O)OCC [PERINDOPRIL],1,0,0,0,3,0,1,0,0,0,1,0,0,0
CC1(C)C(C=C(Cl)Cl)C1C(=O)OCc1cccc(Oc2ccccc2)c1 (stereo not drawn) [PERMETHRIN],0,0,0,0,0,0,0,0,0,0,0,0,0,0
OCCN1CCN(CCCN2c3ccccc3Sc3ccc(Cl)cc32)CC1 [PERPHENAZINE],0,0,0,0,1,0,1,0,0,0,0,0,0,0
